According to patent publication US10344026B2, “Compositions and methods of targeting mutant K-ras” (NANTBIO, INC., priority 2017, dated 2019):

Assays:
Assay type in all cases: cell-based
wild type K-Ras = target: T1, wild type K-Ras (Homo sapiens, UniProt P01116); assay: G-LISA Ras activation, 293H cells transfected with Ras wild-type, EGF stimulated; settings: compound 1 hour, then 100 ng/ml EGF 2 minutes
T1 construct: expressed in transfected cells; host or cells: 293H cells
Protocol: 293H cells were seeded in 6-wells at 0.6×10^6 cells per well and transfected next day with 5 μg of Ras wild-type, or G12C, G12D or G12V mutant DNA plasmid vector using transfection reagent Lipofectamine 3000. Next day cells were treated with 3.125-25 μM of Ras compounds for 1 hour. Wild-type transfected cells were subsequently treated with 100 ng/ml EGF for 2 minutes. Cells were washed once in ice-cold PBS, lysed in complete lysis buffer on ice, and processed by G-LISA according to Cytoskeleton protocol.

K-Ras G12D = target: T2, K-Ras G12D (Homo sapiens, UniProt P01116, G12D); assay: G-LISA Ras activation, 293H cells transfected with G12D mutant; settings: compound 1 hour
T2 construct: expressed in transfected cells; host or cells: 293H cells
How it was run: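 Active Ras was quantified by G-LISA in lysates of 293H cells made the day after transfection with wild-type, G12D or G12V Ras plasmid (5 μg). Compounds were applied at 3.125-25 μM for 1 h; only the wild-type cells got a 2-min 100 ng/ml EGF pulse before lysis.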

[1] = system: Ishikawa (K-Ras wild type cell line); assay: Viability assay (CellTiterBlue, 72 hr) Ishikawa; settings: Homo sapiens, GI50, CellTiterBlue, Ishikawa K-Ras wild-type
How it was run: (§1)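 Each line was plated at 1000 cells per well and incubated for 72 hr with compound after an 18 hr settling period. CellTiterBlue fluorescence measured the result, and GI50 was fitted relative to DMSO and tamoxifen controls.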

[2] = system: U87-MG (K-Ras wild type cell line); assay: Viability assay (CellTiterBlue, 72 hr) U87-MG; settings: Homo sapiens, U-87 MG, GI50, CellTiterBlue, U87-MG K-Ras wild-type
How it was run: as §1

Panc1-G12D = assay: Viability assay (CellTiterBlue, 72 hr) Panc1; settings: Homo sapiens, PANC-1, GI50, CellTiterBlue, Panc1 K-Ras G12D, read-out: 72 hr Cell Viability Panc1 (G12D)
How it was run: as §1

Panc10.05-G12D = assay: Viability assay (CellTiterBlue, 72 hr) Panc10.05; settings: Homo sapiens, Panc1005, GI50, CellTiterBlue, Panc10.05 K-Ras G12D, read-out: 72 hr Cell Viability Panc10.05 (G12D)
How it was run: as §1

HCT116-G31D = assay: Viability assay (CellTiterBlue, 72 hr) HCT116; settings: Homo sapiens, HCT-116, GI50, CellTiterBlue, HCT116 K-Ras G13D, read-out: 72 hr Cell Viability HCT116 (G13D)
How it was run: as §1

[3] = system: phospho-Akt in Panc1 (G12D); assay: In-Cell Western phospho-Akt, Panc1; settings: Homo sapiens, PANC-1, 1 h; Panc1, one hour treatment; read-out: In-Cell Western Panc1 (G12D) Akt (P)
Protocol: (§2) In-cell phosphorylation assays for Erk and Akt were performed on several of the compounds and exemplary results are shown in Table 3 below using HCC827 and A375 cell lines for wild type K-Ras and Panc1 and Panc10.05 cell lines for G12D K-Ras mutants. Results are expressed in μM and corresponding structures are shown in FIGS. 2A-2G and Examples 1-152, above.
(§3) Cells are seeded in complete medium into black sided, clear-bottom 384-well microplates at 3000 cells/[…]/well. Plates are returned to 37° C. CO2 incubator for 18 hr. Drug is made as 200× in DMSO and diluted into medium to 10×. To each well is added 4 ul 10× test article or controls, and plates are returned to the incubator. Final assay DMSO concentration is 0.5%. After one hour, cells are fixed in formaldehyde, rinsed & permeabilized with triton X-100, and blocked with BSA/Goat serum blocking solution. Primary phospho-Akt and phospho-ERK antibodies are added and plates are incubated overnight at 4° C. Plates are rinsed with Tween-20 wash buffer and secondary antibody (Goat anti-rabbit, Thermofisher) is added. After 2 hours, plates are rinsed in Tween-20 wash buffer, and then PBS. Plates are imaged on the Celigo (Nexcelom) and cellular fluorescence is quantitated. Full inhibition of phospho-Akt is achieved with 1 uM BEZ235 (Sellekchem), while full inhibition of phospho-ERK is achieved with 1 uM MEK Inhibitor II Calbiochem). EC50 values are calculated using Graphpad Prism.

[4] = system: phospho-Akt in Panc10.05 (G12D); assay: In-Cell Western phospho-Akt, Panc10.05; settings: Homo sapiens, Panc1005, 1 h; Panc10.05, one hour treatment; read-out: In-Cell Western Panc10.05 (G12D) Akt (P)
Protocol: as §2, §3

[5] = system: HCC827 (K-Ras wild type cell line); assay: Viability assay (CellTiterBlue, 72 hr) HCC827; settings: Homo sapiens, GI50, CellTiterBlue, HCC827 K-Ras wild-type
How it was run: as §1

[6] = system: A375 (K-Ras wild type cell line); assay: Viability assay (CellTiterBlue, 72 hr) A375; settings: Homo sapiens, A-375, GI50, CellTiterBlue
Protocol: Viability assays were performed on exemplary compounds and Table 2 below lists exemplary results for selected compounds tested on K-Ras wild type cell lines (Ishikawa, U87-MG, HCC827, and A375) and various K-Ras mutant cell lines (Panc1-G12D; Panc10.05-G12D; HCT116-G31D). Results are expressed in μM and corresponding structures are shown in FIGS. 2A-2G and Examples 1-152, above.
Cells are counted and seeded at 1000 cells/36 ul medium/well into 384-well microplates. Cells are returned to 37° C. CO2 incubator for 18 hr. Drug is made as 200× in DMSO and diluted into medium to 10×. To each well is added 4 ul 10× drug, and plates are returned to the incubator. Final assay DMSO concentration is 0.5%. After 72 hr, 8 ul CellTiterBlue (Promega) is added to each well. After 3 hr, fluorescence (Ex550/Em590) is determined on the Victor Plate Reader (Perkin Elmer). Assay range is determined by DMSO control (100% viability) and 100 uM tamoxifen (0% viability). GI50 values are calculated using Graphpad Prism.

[7] = system: phospho-ERK in HCC827 (Wild-type); assay: In-Cell Western phospho-ERK, HCC827; settings: Homo sapiens, 1 h; HCC827, one hour treatment; read-out: In-Cell Western HCC827 (Wild-type) Erk (P)
Protocol: as §2, §3

[8] = system: phospho-ERK in A375 (Wild-type); assay: In-Cell Western phospho-ERK, A375; settings: Homo sapiens, A-375, 1 h; A375, one hour treatment; read-out: In-Cell Western A375 (Wild-type) Erk (P)
Protocol: as §2, §3

[9] = system: phospho-Akt in A375 (Wild-type); assay: In-Cell Western phospho-Akt, A375; settings: Homo sapiens, A-375, 1 h; A375, one hour treatment; read-out: In-Cell Western A375 (Wild-type) Akt (P)
Protocol: as §2, §3

[10] = system: phospho-ERK in Panc1 (G12D); assay: In-Cell Western phospho-ERK, Panc1; settings: Homo sapiens, PANC-1, 1 h; Panc1, one hour treatment; read-out: In-Cell Western Panc1 (G12D) Erk (P)
Protocol: as §2, §3

[11] = system: phospho-ERK in Panc10.05 (G12D); assay: In-Cell Western phospho-ERK, Panc10.05; settings: Homo sapiens, Panc1005, 1 h; Panc10.05, one hour treatment; read-out: In-Cell Western Panc10.05 (G12D) Erk (P)
Protocol: as §2, §3

T1 sequence (P01116 whole entry): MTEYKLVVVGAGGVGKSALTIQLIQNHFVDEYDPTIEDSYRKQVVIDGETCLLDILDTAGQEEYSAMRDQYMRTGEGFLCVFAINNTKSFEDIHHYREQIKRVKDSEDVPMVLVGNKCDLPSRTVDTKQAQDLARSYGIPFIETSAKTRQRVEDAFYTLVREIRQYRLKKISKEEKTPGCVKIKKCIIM
T2 sequence (P01116 whole entry G12D): as the sequence (P01116 whole entry) above, with G12D counted along it

Row | SMILES | IC50 (wild type K-Ras) | IC50 (K-Ras G12D) | IC50 [1] | IC50 [2] | IC50 (Panc1-G12D) | IC50 (Panc10.05-G12D) | IC50 (HCT116-G31D) | EC50 [3] | EC50 [4] | IC50 [5] | IC50 [6] | EC50 [7] | EC50 [8] | EC50 [9] | EC50 [10] | EC50 [11]
1 | CCc1nc(C)c(C(=O)Nc2nc(-c3ccc4c(c3)CCC(=O)N4)cs2)o1 [Compound 5, 2-ethyl-4-methyl-N-(4-(2-oxo-1,2,3,4-tetrahydroquinolin-6-yl)thiazol-2-yl)oxazole-5-carboxamide] | 14.1 µM | 10.2 µM | > 25 µM | > 25 µM | 6 µM | 19 µM | 22 µM | 13 µM | 8 µM |  |  |  |  |  |  | 
2 | Cc1nc(C)c(C(=O)Nc2nc(-c3ccc4c(c3)CCC(=O)N4CCCN(C)C)cs2)o1 [Compound 98, N-(4-(1-(3-(dimethylamino)propyl)-2-oxo-1,2,3,4-tetrahydroquinolin-6-yl)thiazol-2-yl)-2,4-dimethyloxazole-5-carboxamide] |  |  | 11 µM | > 25 µM | 13 µM | > 25 µM | > 25 µM | > 25 µM | > 25 µM | 5 µM | 9 µM | > 25 µM | > 25 µM | > 25 µM | > 25 µM | > 25 µM
3 | Cc1cc(C(=O)Nc2nc(-c3ccc4c(c3)CCC(=O)N4)cs2)n(C)n1 [Compound 22, 1,3-dimethyl-N-(4-(2-oxo-1,2,3,4-tetrahydroquinolin-6-yl)thiazol-2-yl)-1H-pyrazole-5-carboxamide] | 12.6 µM | 4.6 µM | 4 µM |  | 1.3 µM | 0.734 µM | > 25 µM | > 25 µM | 27 µM | 22 µM |  |  |  |  | > 25 µM | > 25 µM
4 | Cc1nc(CNC(=O)OC(C)(C)C)sc1C(=O)Nc1nc(-c2ccc3c(c2)CCC(=O)N3)cs1 [Compound 143, tert-butyl ((4-methyl-5-((4-(2-oxo-1,2,3,4-tetrahydroquinolin-6-yl)thiazol-2-yl)carbamoyl)thiazol-2-yl)methyl)carbamate] | 19 µM |  | > 25 µM | 9 µM | 7 µM | 4 µM | > 25 µM | 14 µM | 12 µM |  |  |  |  |  | 8 µM | 8 µM
5 | Cc1nc(C(C)C)sc1C(=O)Nc1nc(-c2ccc3c(c2)CCC(=O)N3)cs1 [Compound 3, 2-isopropyl-4-methyl-N-(4-(2-oxo-1,2,3,4-tetrahydroquinolin-6-yl)thiazol-2-yl)thiazole-5-carboxamide] | 12 µM |  | > 25 µM | 12 µM | 5.5 µM | 14 µM | 18 µM | 9 µM | 8 µM |  |  |  |  |  | 2 µM | 3 µM
6 | Cc1nc(C2CCCC2)sc1C(=O)Nc1nc(-c2ccc3c(c2)CCC(=O)N3)cs1 [Compound 145, 2-cyclopentyl-4-methyl-N-(4-(2-oxo-1,2,3,4-tetrahydroquinolin-6-yl)thiazol-2-yl)thiazole-5-carboxamide] | > 25 µM | 24 µM | > 25 µM | 16 µM | 11 µM | 7 µM | > 25 µM | 18 µM | 17 µM |  |  |  |  |  | 5 µM | 7 µM
7 | Cc1nn(C)cc1C(=O)Nc1nc(-c2ccc3c(c2)CCC(=O)N3)cs1 [Compound 21, 1,3-dimethyl-N-(4-(2-oxo-1,2,3,4-tetrahydroquinolin-6-yl)thiazol-2-yl)-1H-pyrazole-4-carboxamide] | 17.1 µM | 3.8 µM | 5 µM |  | 2 µM | 0.797 µM | 10 µM | 12 µM | 8 µM | 6 µM |  |  |  |  | > 25 µM | > 25 µM
8 | Cn1nccc1C(=O)Nc1nc(-c2ccc3c(c2)CCC(=O)N3)cs1 [Compound 51, 1-methyl-N-(4-(2-oxo-1,2,3,4-tetrahydroquinolin-6-yl)thiazol-2-yl)-1H-pyrazole-5-carboxamide] |  | 21.5 µM | > 25 µM | > 25 µM | > 25 µM | > 25 µM | > 25 µM | > 25 µM |  | > 25 µM | > 25 µM | > 25 µM | > 25 µM | > 25 µM | > 25 µM | 25 µM
9 | Cc1nc(C)c(C(=O)Nc2nc(-c3ccc4c(c3)CCC(=O)N4CC3CCCCC3)cs2)o1 [Compound 62, N-(4-(1-(cyclohexylmethyl)-2-oxo-1,2,3,4-tetrahydroquinolin-6-yl)thiazol-2-yl)-2,4-dimethyloxazole-5-carboxamide] | > 25 µM | 21.7 µM | 3 µM | 3 µM | 5 µM | 2 µM | 4 µM | 6 µM |  |  |  |  |  |  | 2 µM | 6 µM
